Values of other authors as cited in patent publication US20150119339A1, “USE OF HMB TO IMPROVE HEALTH OUTCOMES FOR HOSPITALIZED PATIENTS” (ABBOTT LABORATORIES, priority 2012, published 2015).

Conditions: three grams of HMB; older (70±1 yr) men and women; 10 days voluntary bed rest; not statistically different

CC(C)(O)CC(=O)O [HMB, 3-hydroxy-3-methylbutanoic acid]
loss of lean body mass: less loss of lean body mass
